{"source": "paper PMC4157868", "about": "“Real-Time Analysis of Imatinib- and Dasatinib-Induced Effects on Chronic Myelogenous Leukemia Cell Interaction with Fibronectin” (PLoS ONE, 2014)", "key": {"[1]": {"system": "JURL-MK1 cells on fibronectin", "conditions": "cited from earlier work"}, "[2]": {"system": "active SFKs in MOLM-7 cells", "assay": "immunofluorescence of phospho-SFK in adhesion sites", "assay_type": "cell-based, human", "conditions": "MOLM-7 on fibronectin", "method": "The cells were plated on fibronectin coated coverslips or glass bottom dishes, incubated for 60 minutes in CO2 incubator, fixed with 2% paraformaldehyde, permeabilized in 0.3% Triton/PBS and incubated with anti-phospho-SRC family primary antibody and a secondary antibody (Alexa Fluor 488 Goat Anti-Rabbit). F-actin was labeled with rhodamine phalloidin (Molecular Probes). Samples were analyzed using an Olympus Fluoview FV1000 confocal laser scanning microscope.\nTo support our hypothesis that SFKs may be involved in regulation of cell interaction with fibronectin, we studied the intracellular localization of active SFKs using the phospho-specific anti-SFK antibody. […] In JURL-MK1 cells, the active SFKs were found mainly in the contours of cell-surface contact areas and their localization to the sites of the closest contact was less evident due to different morphology (Figure 8B). […] As the main SFKs in JURL-MK1 and MOLM-7 were LYN and LYN+LCK, respectively, we also analyzed the intracellular localization of these individual kinases.\n(PDF) Click here for additional data file."}, "[3]": {"system": "JURL-MK1 cells on fibronectin", "assay": "kinetics of JURL-MK1 cell adhesivity to fibronectin (adherent cell fraction)", "assay_type": "cell-based, human", "description": "Supplementary file pone.0107367.s001.pdf: Figure S1 Kinetics of dasatinib-induced cell death and changes in cell adhesivity to fibronectin. […] Cell fraction in sub-G1 region of cell cycle phase distribution in samples stained with propidium iodide. […] (PDF) Click here for additional data file."}, "[4]": {"system": "JURL-MK1 and MOLM-7 cells on fibronectin", "assay": "end-point adherent cell fraction on fibronectin-coated wells", "quoted_text": "Briefly, the cells (1×10^4) were seeded into fibronectin-coated wells on a microtitration plate and incubated for 1 h at 37°C. Then, the cells were washed wih PBS/Ca^2+/Mg^2+ and the remaining cells were quantified by means of fluorescent labelling (CyQuant Cell Proliferation Assay Kit; Molecular Probes). The adherent cell fraction (ACF) was calculated using the fluorescence signal from fibronectin-coated plate and the signal obtained from a reference plate that contained the total cell number."}, "[5]": {"system": "JURL-MK1 and MOLM-7 cells on fibronectin", "assay": "real-time microimpedance, cell interaction with fibronectin, BCR-ABL-positive cells", "assay_type": "cell-based, human", "conditions": "dasatinib 100 nM, clinically relevant dose", "quoted_text": "RTCA xCELLigence DP system (Acea Biosciences, San Diego, CA, U.S.A.) was placed in an incubator (at 37°C) with 5% CO2 content. […] The microimpedance signal (cell index) was set to zero in these conditions. […] DMSO (0.1%) was also added to control wells.\nCells were seeded into E-plates and incubated for 1–2 h to allow for cell attachment to the coated cell bottom. After signal stabilization, the drug was added in a small drop while the corresponding solvent was added to control wells as any mechanical perturbation usually produced minor changes, too.\nThe cells (6×10^4 per well) were seeded into fibronectin-coated E-plates. After the microimpedance signal stabilization, the appropriate inhibitor was added in triplets. […] Microimpedance signal (cell index) was normalized to 1 at the time of inhibitor addition."}, "[6]": {"system": "HEL and JURKAT cells on fibronectin", "assay": "real-time microimpedance, cell interaction with fibronectin, BCR-ABL-negative cells", "assay_type": "cell-based, human", "conditions": "low-dose (several nM) dasatinib", "description": "(§1) (PPTX) Click here for additional data file.\nas §1"}, "[7]": {"system": "JURL-MK1 and MOLM-7 cells", "assay": "apoptosis onset: caspase activation (Ac-DEVD-AFC), Annexin V staining", "assay_type": "cell-based, human"}}}
{"smiles": "CC(C)(C)n1nc(-c2ccc(Cl)cc2)c2c(N)ncnc21", "note": "[PP2]", "values": [{"measurement": "effect on JURL-MK1 cell adhesivity to FN", "setting": "[1]; PP2, recently reported by the authors", "value": "increases JURL-MK1 cell adhesivity to FN"}, {"measurement": "phospho-SFK fluorescent signal at adhesion sites", "setting": "[2]; 10 µM PP2, 30 min", "value": "The same effect was also reached"}]}
{"smiles": "CC(C)[C@H](NC(=O)c1ccc2ccccc2n1)C(=O)N[C@@H](CC(=O)O)C(=O)COc1c(F)cccc1F", "note": "[Q-VD-OPh]", "values": [{"measurement": "effect on the dasatinib-induced decrease of cell adhesivity to fibronectin", "setting": "[3]; 10 µM Q-VD-OPh added together with 2 nM dasatinib, 24 h", "value": "This decrease was prevented"}]}
{"smiles": "Cc1nc(Nc2ncc(C(=O)Nc3c(C)cccc3Cl)s2)cc(N2CCN(CCO)CC2)n1", "note": "[dasatinib]", "values": [{"measurement": "change in number of cells attached to fibronectin", "setting": "[4]; dasatinib 1 to 10 nM, JURL-MK1 and MOLM-7", "value": "mild increase in the number of attached cells"}, {"measurement": "change in CML cell binding to fibronectin", "setting": "[4]; dasatinib at therapeutic concentrations (100 nM)", "value": "does not enhance CML cell binding to fibronectin"}, {"measurement": "cell adhesivity to fibronectin after 24 h treatment", "setting": "[3]; dasatinib 2 nM", "value": "cell adhesivity to fibronectin lowered"}, {"measurement": "effect on CML cell binding to fibronectin", "setting": "[5]", "value": "almost no effect"}, {"measurement": "phospho-SFK fluorescent signal at adhesion sites", "setting": "[2]; 100 nM dasatinib, 30 min", "value": "complete disappearance of the green fluorescent signal from adhesion sites"}, {"measurement": "change of cell binding to fibronectin", "setting": "[6]", "value": "no significant change"}, {"measurement": "number of early apoptotic cells, Annexin V staining", "setting": "[7]; 10 nM dasatinib, 6 h, JURL-MK1 and MOLM-7", "value": "no significant increase in the number of early apoptotic cells"}, {"measurement": "time of treatment at which caspases became activated", "setting": "[7]; dasatinib 10 nM", "value": "about 6 h"}]}
{"smiles": "Cc1ccc(NC(=O)c2ccc(CN3CCN(C)CC3)cc2)cc1Nc1nccc(-c2cccnc2)n1", "note": "[imatinib]", "values": [{"measurement": "cell fraction adhering to FN", "setting": "[1]; imatinib, first several hours of treatment, JURL-MK1", "value": "the cell fraction adhering to FN increased"}]}
